# Literature values in patent EP3297603B1, “CINEOLE-CONTAINING AQUEOUS COMPOSITION FOR NASAL APPLICATION” (Maria Clementine Martin Klosterfrau Vertriebsgesellschaft …, priority 2015, dated 2017).
# Conditions: general property, reference to RÖMPP Chemielexikon
compound,measurement,value
"CC12CCC(CC1)C(C)(C)O2 [1,8-Cineol, 1,3,3-Trimethyl-2-oxabicyclo[2.2.2]octan]",Löslichkeit in Wasser,in Wasser unlöslich
